Results: patent publication US6812228B2, “Benzoxazines for use in the treatment of parkinson's disease” (Warner-Lambert Company, priority 2000, dated 2004)
Read-outs that look alike come from different tables or passages of the source.

How the values were obtained:
[1] = molecular target: T1, human muscarinic receptor subtype M2 (Homo sapiens, UniProt P08172); assay: Muscarinic receptor binding, displacement of [3H]-NMS, membranes from transfected CHO cells
T1 sequence (P08172 1-466): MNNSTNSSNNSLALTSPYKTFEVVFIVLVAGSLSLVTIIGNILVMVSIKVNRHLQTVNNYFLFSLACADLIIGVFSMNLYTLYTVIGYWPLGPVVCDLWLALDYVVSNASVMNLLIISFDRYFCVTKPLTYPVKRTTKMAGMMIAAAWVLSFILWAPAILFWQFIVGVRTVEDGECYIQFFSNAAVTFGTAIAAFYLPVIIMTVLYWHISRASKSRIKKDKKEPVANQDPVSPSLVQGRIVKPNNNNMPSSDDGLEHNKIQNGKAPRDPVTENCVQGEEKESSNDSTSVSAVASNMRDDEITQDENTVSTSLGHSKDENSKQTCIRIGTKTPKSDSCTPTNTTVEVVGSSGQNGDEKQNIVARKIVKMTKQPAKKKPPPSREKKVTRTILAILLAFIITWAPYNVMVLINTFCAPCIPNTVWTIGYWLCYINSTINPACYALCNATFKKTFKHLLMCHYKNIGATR
Protocol: (§1) The compounds were evaluated in standard assays used to measure muscarinic receptor binding, and they were compared with other benzoxazines described in Bioorganic & Medicinal Chemistry Letters 8, 1998:1991-1996, which is incorporated herein by reference. Specifically, the compounds were evaluated for their binding affinity toward five human muscarinic receptor subtypes (M1-M5) by the method of Dorje et al., J. Pharm. Exp. Ther. 1991;256:727-733, which is incorporated herein by reference. The binding was determined by measuring the displacement of [^3H]-NMS (N-methylscopolamine) binding using membranes from transfected Chinese hamster ovary (CHO) cells.

[2] = molecular target: T2, human muscarinic receptor subtype M1 (Homo sapiens, UniProt P11229); assay: as above
T2 sequence (P11229 1-460): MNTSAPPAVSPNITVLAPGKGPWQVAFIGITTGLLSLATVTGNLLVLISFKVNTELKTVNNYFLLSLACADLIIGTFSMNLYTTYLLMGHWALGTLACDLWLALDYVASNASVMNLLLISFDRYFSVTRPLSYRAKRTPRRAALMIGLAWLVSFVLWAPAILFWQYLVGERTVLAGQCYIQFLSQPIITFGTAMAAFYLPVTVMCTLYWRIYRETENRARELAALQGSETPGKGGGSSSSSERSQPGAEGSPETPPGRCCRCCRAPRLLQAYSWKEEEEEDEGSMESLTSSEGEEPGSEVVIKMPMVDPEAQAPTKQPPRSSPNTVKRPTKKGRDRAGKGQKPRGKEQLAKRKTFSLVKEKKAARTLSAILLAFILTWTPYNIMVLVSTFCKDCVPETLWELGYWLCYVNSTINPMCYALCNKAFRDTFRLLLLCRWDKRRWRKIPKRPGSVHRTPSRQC
Protocol: as §1

[3] = molecular target: T3, human muscarinic receptor subtype M4 (Homo sapiens, UniProt P08173); assay: as above; details: for binds to the M4 receptor more than to M3 (selectivity): M4 versus M3; for bind to M4 more than some of the other subtypes (selectivity): M4 versus some of the other subtypes, upper figure (as much as)
T3 sequence (P08173 1-479): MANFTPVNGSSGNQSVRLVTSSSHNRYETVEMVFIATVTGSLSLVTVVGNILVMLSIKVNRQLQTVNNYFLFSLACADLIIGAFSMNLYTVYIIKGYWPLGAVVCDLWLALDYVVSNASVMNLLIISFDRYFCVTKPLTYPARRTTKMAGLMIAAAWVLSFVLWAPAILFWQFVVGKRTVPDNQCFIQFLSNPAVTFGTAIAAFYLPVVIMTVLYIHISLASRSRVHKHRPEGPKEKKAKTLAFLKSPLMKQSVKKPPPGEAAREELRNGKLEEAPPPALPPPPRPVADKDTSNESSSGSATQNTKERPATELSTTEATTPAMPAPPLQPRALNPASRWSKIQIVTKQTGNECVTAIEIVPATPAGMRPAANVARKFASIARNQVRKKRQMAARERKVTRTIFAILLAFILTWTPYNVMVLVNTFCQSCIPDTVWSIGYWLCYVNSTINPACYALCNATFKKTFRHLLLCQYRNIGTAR
Protocol: as §1

[4] = molecular target: T4, human muscarinic receptor subtype M5 (Homo sapiens, UniProt P08912); assay: as above
T4 sequence (P08912 1-532): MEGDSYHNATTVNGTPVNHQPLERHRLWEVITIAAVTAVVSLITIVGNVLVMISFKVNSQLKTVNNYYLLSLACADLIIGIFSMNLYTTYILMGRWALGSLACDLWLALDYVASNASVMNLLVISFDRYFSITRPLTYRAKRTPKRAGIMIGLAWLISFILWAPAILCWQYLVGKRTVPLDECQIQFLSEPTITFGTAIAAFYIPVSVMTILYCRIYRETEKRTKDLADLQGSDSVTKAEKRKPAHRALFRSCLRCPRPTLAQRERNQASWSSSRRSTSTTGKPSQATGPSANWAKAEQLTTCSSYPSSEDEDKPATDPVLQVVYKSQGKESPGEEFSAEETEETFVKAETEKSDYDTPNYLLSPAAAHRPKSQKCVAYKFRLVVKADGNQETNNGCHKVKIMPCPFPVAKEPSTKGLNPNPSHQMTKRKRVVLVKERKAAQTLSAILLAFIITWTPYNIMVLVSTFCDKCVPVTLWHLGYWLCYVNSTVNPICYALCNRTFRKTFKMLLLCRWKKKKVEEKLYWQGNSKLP
Protocol: as §1

[5] = molecular target: human muscarinic receptor subtype M3 (Homo sapiens, UniProt P20309); assay: as above
Protocol: as §1

[6] = [3H]-NMS displacement, CHO cell membranes, tested two to four times, SEM <=10%, read-out: Muscarinic Binding Activity M2 (IC50)
[7] = [3H]-NMS displacement, CHO cell membranes, tested two to four times, SEM <=10%, read-out: Muscarinic Binding Activity M1 (IC50)
[8] = [3H]-NMS displacement, CHO cell membranes, tested two to four times, SEM <=10%, read-out: Muscarinic Binding Activity M4 (IC50)
[9] = [3H]-NMS displacement, CHO cell membranes, tested two to four times, SEM <=10%, read-out: Muscarinic Binding Activity M5 (IC50)
[10] = [3H]-NMS displacement, CHO cell membranes, tested two to four times, SEM <=10%, read-out: Muscarinic Binding Activity M3 (IC50)

Sequence of human muscarinic receptor subtype M3 (P20309 whole entry): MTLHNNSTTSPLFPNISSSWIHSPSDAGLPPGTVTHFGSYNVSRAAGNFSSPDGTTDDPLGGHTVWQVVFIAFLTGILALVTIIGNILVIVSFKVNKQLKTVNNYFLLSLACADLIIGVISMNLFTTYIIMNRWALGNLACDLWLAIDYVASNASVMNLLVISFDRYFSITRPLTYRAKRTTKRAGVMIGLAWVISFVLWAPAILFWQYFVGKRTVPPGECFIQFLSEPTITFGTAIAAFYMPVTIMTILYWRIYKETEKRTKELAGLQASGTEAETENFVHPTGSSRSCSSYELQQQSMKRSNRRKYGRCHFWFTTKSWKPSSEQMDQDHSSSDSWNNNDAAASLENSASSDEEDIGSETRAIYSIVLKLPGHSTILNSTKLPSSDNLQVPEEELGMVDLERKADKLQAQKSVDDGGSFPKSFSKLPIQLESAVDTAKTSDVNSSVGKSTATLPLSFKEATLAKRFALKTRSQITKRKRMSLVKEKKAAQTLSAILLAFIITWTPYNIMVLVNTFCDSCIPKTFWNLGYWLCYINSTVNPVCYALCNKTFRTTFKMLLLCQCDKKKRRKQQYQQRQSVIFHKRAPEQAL

melting point [°C] | IC50 [1, 6] [nM] | IC50 [2, 7] [nM] | IC50 [3, 8] [nM] | IC50 [4, 9] [µM] | IC50 [5, 10] [nM] | binds to the M4 receptor more than to M1, M2, and M5 (selectivity) ([3]; M4 versus M1, M2 and M5) | binds to the M4 receptor more than to M3 (selectivity) [3] | bind to M4 more than some of the other subtypes (selectivity) [3] | Structure (SMILES) | IC50 [1] [nM] | IC50 [2] [nM] | IC50 [3] [nM] | IC50 [4] [µM] | IC50 [5] [nM]
191 to 193 | 2000 | 4660 | 9 | 3.66 | 130 | – | – | – | CCCc1[nH]c2ccc3c(c2c1C(=O)OCC)CN1CCc2cc(OC)ccc2C1O3 (stereo not drawn) [Example 1, 9-Methoxy-2-propyl-11,12-dihydro-3H,6αH,13H-6-oxa-3,12α-diaza-benzo[a]cyclopent[h]anthracene-1-carboxylic acid ethyl ester] | – | – | – | – | –
139 to 143 | 7000 | 7500 | 7 | 3 | 370 | about 1000 fold | about 52 fold | – | CCCc1c(C(=O)OCC)c2c3c(ccc2n1C)OC1c2ccc(SC)cc2CCN1C3 (stereo not drawn) [Example 2, 3-Methyl-9-methylsulfanyl-2-propyl-11,12-dihydro-3H,6aH,13H-6-oxa-3,12a-diaza-benzo[a]cyclopent[h]anthracene-1-carboxylic acid ethyl ester] | – | – | – | – | –
150 to 151 | 950 | 3000 | 7 | 6 | 130 | – | – | – | CCCc1c(C(=O)OCC)c2c3c(ccc2n1C)OC1c2ccc(OC)cc2CCN1C3 (stereo not drawn) [Example 3, 9-Methoxy-3-methyl-2-propyl-11,12-dihydro-3H,6aH,13H-6-oxa-3,12a-diaza-benzo[a]cyclopent[h]anthracene-1-carboxylic acid ethyl ester] | – | – | – | – | –
185 to 186 | 2000 | 1400 | 6 | 3.5 | 200 | – | about 30 fold | about 800 fold | CCCc1[nH]c2ccc3c(c2c1C(=O)OCC)CN1CCc2cc(SC)ccc2C1O3 (stereo not drawn) [Example 4, 9-Methylsulfanyl-2-propyl-11,12-dihydro-3H,6aH,13H-6-oxa-3,12a-diaza-benzo[a]cyclopent[h]anthracene-1-carboxylic acid ethyl ester] | – | – | – | – | –
– | 550 | 800 | 6 | 13 | 190 | – | about 30 fold | about 800 fold | CCCCc1[nH]c2ccc3c(c2c1C(=O)OCC)CN1CCc2cc(OC)ccc2C1O3 (stereo not drawn) [Example 5, 2-Butyl-9-methoxy-11,12-dihydro-3H,6aH,13H-6-oxa-3,12a-diaza-benzo[a]cyclopent[h]anthracene-1-carboxylic acid ethyl ester] | – | – | – | – | –
159 to 161 | 4000 | 2000 | 10 | 2 | 5000 | – | – | – | CCCCc1[nH]c2ccc3c(c2c1C(=O)OCC)CN1CCc2cc(SC)ccc2C1O3 (stereo not drawn) [Example 6, 2-Butyl-9-methylsulfanyl-11,12-dihydro-3H,6aH,13H-6-oxa-3,12a-diaza-benzo[a]cyclopent[h]anthracene-1-carboxylic acid ethyl ester] | – | – | – | – | –
170 to 172 | 600 | 50000 | 10 | 10 | 200 | – | – | – | CCCCCc1[nH]c2ccc3c(c2c1C(=O)OCC)CN1CCc2cc(OC)ccc2C1O3 (stereo not drawn) [Example 7, 9-Methoxy-2-pentyl-11,12-dihydro-3H,6aH,13H-6-oxa-3,12a-diaza-benzo[a]cyclopent[h]anthracene-1-carboxylic acid ethyl ester] | – | – | – | – | –
157 to 160 | 800 | 2000 | 30 | 3 | 400 | – | – | – | CCCCCCc1[nH]c2ccc3c(c2c1C(=O)OCC)CN1CCc2cc(OC)ccc2C1O3 (stereo not drawn) [Example 8, 2-Hexyl-9-methoxy-11,12-dihydro-3H,6aH,13H-6-oxa-3,12a-diaza-benzo[a]cyclopent[h]anthracene-1-carboxylic acid ethyl ester] | – | – | – | – | –
– | – | – | – | – | – | – | – | – | CCOC(=O)c1c(CC)n(CC)c2ccc3c(c12)CN1CCc2cc(OC)ccc2C1O3 (stereo not drawn) [Prior Art Compound Et/Et/9-OMe/Et, reference compound] | 1000 | 5000 | 20 | 5 | 50
– | 2000 | 2000 | 20 | 6 | 200 | – | – | – | CCOC(=O)c1c(CC)[nH]c2ccc3c(c12)CN1CCc2cc(OC)ccc2C1O3 (stereo not drawn) [Prior Art Compound Et/Et/9-OMe/H, reference compound] | – | – | – | – | –
– | – | – | – | – | – | – | – | – | CCOC(=O)c1c(C)n(CC)c2ccc3c(c12)CN1CCc2cc(OC)ccc2C1O3 (stereo not drawn) [Prior Art Compound Et/Me/9-OMe/Et, reference compound] | 400 | 2000 | 50 | 3 | 500
– | 1000 | 3000 | 30 | 6 | 500 | – | – | – | CCOC(=O)c1c(C)[nH]c2ccc3c(c12)CN1CCc2cc(OC)ccc2C1O3 (stereo not drawn) [Prior Art Compound Et/Me/9-OMe/H, reference compound] | – | – | – | – | –
– | 400 | 500 | 50 | 1 | 400 | – | – | – | CCOC(=O)c1c(C)n(C)c2ccc3c(c12)CN1CCc2cc(OC)ccc2C1O3 (stereo not drawn) [Prior Art Compound Et/Me/9-OMe/Me, reference compound] | – | – | – | – | –
